Assay results taken from article PMC5578373, “Inhibitory Kappa B Kinase α (IKKα) Inhibitors That Recapitulate Their Selectivity in Cells against Isoform-Related Biomarkers” (Journal of Medicinal Chemistry, 2017).
Entries after “also recorded” stand apart in the source; their conditions may differ. Read-outs that look alike come from different tables or passages of the source.

What was measured:
[1] = tested on: IKKα-driven p100 phosphorylation in U2OS cells; assay: FCS-stimulated p100 phosphorylation (Ser866/870) in U2OS cells, Western blot; format: cell-based, human; conditions: 1 h pretreatment, FCS (10%) for 4 h, blots quantified, read-out: IC50 for inhibition of p100 phosphorylation
Experimental: (§1) Two IKKβ-dependent readouts were selected to assess selectivity over IKKβ. First, TNFα stimulates IκBα degradation through activation of IKKβ and if IKKβ is inhibited, then a band corresponding to the IκBα protein should be evident by Western analysis. Second, IKKβ phosphorylates p65 on Ser536, which can also be assessed by Western blot analysis. Only at the highest concentration (100 μM) of 48 was IκBα degradation and p65 (Ser536) phosphorylation inhibited (Figure 9b). Even at this high concentration, these effects were not apparent following pretreatment with 47 (Figure 10b).
(§2) Figure 9 Effect of compound 48 on (a) FCS-stimulated noncanonical and (b) TNF-α-induced canonical NF-kB activation in U2OS cells. Cells were pretreated with 48 1 h prior to stimulation with FCS (10%) for 4 h or TNF-α (10 ng/mL) for 30 min. Whole cell lysate were prepared, separated by SDS-PAGE, and assessed for (a) inhibition of p100 phosphorylation (Ser866/870) and (b) IkB-α and p-p65 (Ser536) status. […] The results are representative of three independent experiments.
as §2, with “10” for “9”, “47” for “48”
(§3) U2OS cells were cultured with McCoy’s 5A modified medium and MEF were cultured with DEME medium containing 10% (v/v) FCS and medium was changed every 2 d thereafter until cells became confluent. Cells were incubated at 37 °C in humidified air with 5% CO2 and rendered quiescent by serum deprivation for 24 h prior to stimulation in serum-free medium.
(§4) Whole cell lysates were prepared from U2OS and status of IκBα, p65, p-p65 (Ser536), and p-p100 (Ser 866/870) assessed by Western blotting as described in Mackenzie et al. (2007).[46]

[2] = tested on: IKKβ-dependent IκBα degradation in U2OS cells; assay: TNFα-induced IκBα degradation in U2OS cells, Western blot; format: cell-based, human; conditions: highest concentration 100 μM, TNF-α (10 ng/mL) 30 min
Experimental: as §1
(§5) Figure 9 Effect of compound 48 on (a) FCS-stimulated noncanonical and (b) TNF-α-induced canonical NF-kB activation in U2OS cells. […] Whole cell lysate were prepared, separated by SDS-PAGE, and assessed for (a) inhibition of p100 phosphorylation (Ser866/870) and (b) IkB-α and p-p65 (Ser536) status. […]
as §5, with “10” for “9”, “47” for “48”
as §4

[3] = tested on: IKKβ-dependent p65 (Ser536) phosphorylation in U2OS cells; assay: TNFα-induced p65 (Ser536) phosphorylation in U2OS cells, Western blot; format: cell-based, human; conditions: highest concentration 100 μM, TNF-α (10 ng/mL) 30 min
Experimental: as §1, §5
as §5, with “10” for “9”, “47” for “48”
as §4

[4] = tested on: IKKα-regulated NF-κB transcriptional activation in IKKβ−/− MEFs; assay: IL-1β-stimulated NF-κB-luciferase transcriptional activity in IKKβ knockout MEFs; format: cell-based, mouse
Experimental: To provide further evidence for cellular activity, mouse embryonic fibroblasts lacking the IKKβ kinase subunit were utilized to investigate the potency of both compounds against agonist-stimulated IKKα-regulated NF-κB transcriptional activation. Cells were infected with an adenovirus encoding an NF-κB-luciferase promoter gene. NF-κB transcriptional activity driven by IKKα was stimulated specifically using IL-1β,[41] and the ability of the compounds to inhibit this response was assessed. […] As IKKα plays a lesser role in the canonical NF-κB cascade,[42] particularly the rapid and transient stimulated degradation of IκBα, selective IKKα inhibitors should not affect TNF-α induced IκBα degradation and p65 phosphorylation.
as §3
An adenoviral vector encoding NFκB-luciferase (Adv.NFκB-Luc) was purchased from Vector Biolabs (University of Pennsylvania, Philadelphia, US). Large-scale production of high titer recombinant adenovirus was performed by routine methods.[47] IKKβ knockout mouse embryonic fibroblasts (MEFs; kindly provided by Prof. I. Verma, UCSD, USA) were counted when approximately 60–70% confluent in T75 cm^2 flasks and infected with adenovirus up to 300 pfu/cell^–1 for 24 h in 10% DMEM. Cells were then lifted from the flasks and plated into 96-well clear bottom, black luciferase plates and allowed to settle for 24 h before serum starved overnight. Cells were then stimulated with the appropriate agonists for the indicated times and reactions terminated by addition of lysis buffer containing 0.2 mM luciferin substrate. Relative light units (RLU) were measured using a Trilux microbeta counter (luminometer).

N#Cc1c[nH]c2nc(N)nc(-c3ccc(CO)cc3)c12 [Compound 47, 2-Amino-4-(4-hydroxymethyl)phenyl-7H-pyrrolo[2,3-d]pyrimidine-5-carbonitrile]
IC50 [1]: 19.1 µM
IC50 ([1]; Homo sapiens, U2OS): 13.9 µM
inhibition of TNFα-stimulated IκBα degradation [2]: not apparent; also recorded: did not affect
inhibition of TNFα-stimulated p65 (Ser536) phosphorylation [3]: not apparent; also recorded: did not affect
% stimulation ([4]; 100 μM compound, 1 h pretreatment, IL-1β (10 ng/mL) 6 h, IL-1β + DMSO = 100, mean ± SEM): –40.9 ± 4.6 %
inhibition of NF-κB transcriptional activity ([4]; maximal concentrations of 50–100 μM): approximately 81%
% stim ([4]; maximal concentrations of 50–100 μM, Il-1β+DMSO = 100%): 18.79 ± 7.2%
